# Results from patent US20060165814A1, “Amines, combination of amines and vanadium and amine vanadium salts for the treatment or prevention of dyslipidemia” (Genmedica Therapeutics SL, priority 2004, published 2006).
# Columns and labels:
# rat adipocytes = conditions: amine in combination with low concentrations of vanadate; cited from earlier work
# [1] = test system: streptozotocin-induced diabetic rats; assay: Subcutaneous chronic administration, plasma cholesterol in diabetic rats; format: in vivo, rat; conditions: subcutaneously infused for 28 days; B6V10 1.25 or 2.5 μmol/kg/day, V10 1.25 μmol/kg/day; streptozotocin (100 mg/kg) diabetic rats
# Description: FIG. 3A through 3D show plasma concentrations of total cholesterol (FIG. 3A), nonesterified cholesterol (FIG. 3B), esterified cholesterol (FIG. 3C) and HDL-cholesterol (FIG. 3D) measured in nondiabetic rats (C), streptozotocin-induced diabetic rats (Diab) or diabetic rats treated for 28 days with subcutaneously infused decanadate (V10, 1.25 μmol/kg/day) or hexaquis(benzylammonium) decavanadate (B6V10) at two different doses (1.25 μmol/kg/day or 2.5 μmol/kg/day). * indicates the existance of statistically significant differences from the Diab group at p<0.05.
# Subcutaneous administration of hexaquis(benzylammonium) decavanadate was performed to determine the effect on altered plasma concentrations of cholesterol associated to diabetes. Diabetes was induced in rats by intravenous administration of a large dose of streptozotocin (100 mg/kg). Experimentally-induced Diabetes was associated with substantial increases in total plasma cholesterol and nonesterified cholesterol and a reduction in esterified cholesterol concentrations compared to nondiabetic rats (FIG. 3A). HDL-cholesterol concentrations were unaltered by diabetes […]. Under these conditions, subcutaneous treatment with different doses of hexaquis(benzylammonium) decavanadate reduced plasma concentrations of total cholesterol and nonesterified cholesterol and increased esterified cholesterol concentrations so no differences between control and hexaquis(benzylammonium) decavanadate-treated rats were detectable (FIG. 3C).
# [2] = test system: streptozotocin-induced diabetic rats; assay: Subcutaneous chronic administration, plasma triglyceride and free fatty acids in diabetic rats; format: in vivo, rat; conditions: subcutaneously infused for 28 days; B6V10 1.25 or 2.5 μmol/kg/day, V10 1.25 μmol/kg/day; streptozotocin (100 mg/kg) diabetic rats
# Description: FIG. 2A though 2D are bar graphs showing plasma concentrations of insulin (FIG. 2A), glucose (FIG. 2B), free fatty acids (FIG. 2C) and triglycerides (FIG. 2D) measured in nondiabetic rats (C), streptozotocin-induced diabetic rats (Diab) or diabetic rats treated for 28 days with subcutaneously infused decanadate (V10, 1.25 μmol/kg/day) or hexaquis(benzylammonium) decavanadate (B6V10) at two different doses (1.25 μmol/kg/day or 2.5 μmol/kg/day). * indicates the existance of statistically significant differences from the Diab group at p<0.05.
# Subcutaneous administration of hexaquis(benzylammonium) decavanadate was tested to determine whether it ameliorated the dyslipidemia associated with diabetes. Diabetes was induced in rats by intravenous administration of a large dose of streptozotocin (100 mg/kg), causing a complete disappearance of plasma insulin and very high concentrations of plasma glucose (FIGS. 2A and 2B). Induction of diabetes was also associated with substantial increases in plasma free fatty acid and triglyceride concentrations compared to nondiabetic rats (FIGS. 2C and 2D). Under these conditions, subcutaneous treatment with different doses of hexaquis(benzylammonium) decavanadate normalized plasma concentrations of free fatty acids and triglycerides so that no differences between control and hexaquis(benzylammonium) decavanadate-treated rats were detectable (FIGS. 2C and 2D).
# [3] = test system: streptozotocin-induced diabetic rats; assay: Oral chronic administration, plasma cholesterol in diabetic rats; format: in vivo, rat; conditions: single daily oral dose for 17 days, 5 μmol/kg/day day 0-7 and 10 μmol/kg/day day 8-17
# Description: FIG. 1 is a bar graph of the plasma concentration of cholesterol (Ch) (expressed in mmol/L) measured in nondiabetic rats (C), streptozotocin-induced diabetic rats (D) or diabetic rats treated for 17 days with a single daily oral dose of hexaquis(benzylammonium) decavanadate (5 μmol/kg/day between day 0 and day 7 and 10 μmol/kg/day from day 8 to day 17 of treatment) (BV). Cholesterol concentrations in the D group were statistically significant from the C group at p<0.05.
# Oral administration of hexaquis(benzylammonium) decavanadate was tested to determine whether it ameliorated dyslipidemia associated to diabetes. Diabetes was induced in rats by intravenous administration of streptozotocin, causing a substantial increase in plasma cholesterol concentrations compared to nondiabetic rats (FIG. 1).
compound,measurement,setting,value
NCc1ccccc1 [benzylamine],glucose transport,rat adipocytes,stimulates glucose transport
"[O]=[V]([O-])([O-])[O][V]1(=[O])[O][V]2(=[O])[O][V](=[O])([O][V](=[O])([O-])[O-])[O][V](=[O])([O]2)[O][V]2(=[O])[O][V](=[O])([O][V](=[O])([O-])[O-])[O][V](=[O])([O]1)[O]2 (stereo not shown) [decavanadate, reference compound]",plasma concentration of esterified cholesterol,[1],not significantly different
same,plasma concentration of nonesterified cholesterol,[1],not significantly different
same,plasma concentration of total cholesterol,[1],significant reduction
same,plasma concentration of free fatty acids,[2],did not alter
same,plasma concentration of triglycerides,[2],did not alter
NCCc1ccc(O)cc1 [tyramine],glucose transport,rat adipocytes,stimulates glucose transport
hexaquis(benzylammonium) decavanadate,plasma concentration of esterified cholesterol,[1],increased
same,plasma concentration of nonesterified cholesterol,[1],reduced
same,plasma concentration of total cholesterol,[1],reduced
same,plasma cholesterol levels,[3],substantially reduced
same,plasma concentration of free fatty acids,[2],normalized
same,plasma concentration of triglycerides,[2],normalized
